Measured values reported in patent publication US4760136A, “Chartreusin derivatives and salts thereof” (Ishihara Sangyo Kaisha, Ltd., priority 1984, dated 1988).
Like-named read-outs stand apart in the source and are kept apart here.

Columns and labels:
[1] = Acute toxicity, intravenous (once), ddY mice; format: in vivo; conditions: mouse, in vivo, formulated per Preparation Example
From the text: In Table 7 are shown acute toxicity values (LD50, mg/kg) in ddY mice in the case of intravenously administering (once) each of the compounds of this invention in the form of preparations shown in the Preparation Examples shown in Table 7.

P-388 leukemia cells = assay: Antitumor activity: P-388 leukemia cells inoculated intraperitoneally, drug administered intravenously, BDF1 mice; format: in vivo; conditions: for response vs control in vivo at 60 mg/kg: dose e: 60 mg/kg × 3, i.v. on days 1, 5 and 9; for response vs control in vivo at 80 mg/kg: dose f: 80 mg/kg × 3, i.v. on days 1, 5 and 9
How it was run: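 Drug dosing was intravenous on the first, fifth and ninth days after intraperitoneal inoculation of P-388 leukemia cells (1×10^6 per mouse) into BDF1 mice. Vehicles were physiological saline alone, or saline with small amounts of sodium carboxymethyl cellulose or Tween-80.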

[2] = Mus musculus, P388, iv, BDF1 mice, P-388 i.p., read-out: T/C (%) of MST
[3] = Mus musculus, P388, iv, dose c: 40 mg/kg × 3, i.v. on days 1, 5 and 9, BDF1 mice, P-388 i.p., read-out: T/C (%) of MST
[4] = Mus musculus, P388, iv, dose b: 20 mg/kg × 3, i.v. on days 1, 5 and 9, BDF1 mice, P-388 i.p., read-out: T/C (%) of MST

Row | Structure (SMILES) | LD50 ([1]; iv) [mg/kg] | response vs control in vivo at 40 mg/kg (P-388 leukemia cells; [3]) [%] | other results
1 | COC1C(O)C(C)OC(OC2C(Oc3cccc4c(OC(=O)CCCCCNC(=O)OCc5ccccc5)c5c(=O)oc6ccc(C)c7c(=O)oc(c34)c5c67)OC(C)C3OC(C)(C)OC32)C1O (stereo not drawn) [Compound No. 111, 6-O-(N-Carbobenzyloxy-6-Amino-n-Hexanoyl)-3',4'-O-Isopropylidene-Chartreusin] | ≥ 100 |  | response vs control in vivo at 60 mg/kg (P-388 leukemia cells; [2]): 175%
2 | COC1C(O)C(C)OC(OC2C(Oc3cccc4c(OC(=O)C(NC(=O)OCc5ccccc5)C(C)C)c5c(=O)oc6ccc(C)c7c(=O)oc(c34)c5c67)OC(C)C3OC(C)(C)OC32)C1O (stereo not drawn) [compound 125] | ≥ 100 |  | response vs control in vivo at 50 mg/kg (P-388 leukemia cells; Mus musculus, P388, iv, dose d: 50 mg/kg × 3, i.v. on days 1, 5 and 9, BDF1 mice, P-388 i.p., read-out: T/C (%) of MST): 140%
3 | COC1C(O)C(C)OC(OC2C(Oc3cccc4c(OC(=O)CCN5CCCC5)c5c(=O)oc6ccc(C)c7c(=O)oc(c34)c5c67)OC(C)C3OC(c4cccc(F)c4)OC32)C1O (stereo not drawn) [Compound No. 34, 6-O-(β-1-pyrrolidinyl-propionyl)-3',4'-O-(m-fluorobenzylidene)-chartreusin phosphate] | ≥ 30 | 140 | 
4 | CO[C@H]1[C@@H](O)[C@@H](C)O[C@H](O[C@H]2[C@H](Oc3cccc4c(OC(=O)C5CC5C)c5c(=O)oc6ccc(C)c7c(=O)oc(c34)c5c67)O[C@H](C)[C@@H]3OC(C)(C)O[C@@H]32)[C@@H]1O (stereo partly drawn) [Compound No. 178] | ≥ 80 | 142 | response vs control in vivo at 80 mg/kg (P-388 leukemia cells; [2]): 181%
5 | C/C=C(\C)C(=O)Oc1c2cccc(OC3OC(C)C4OC(c5cccc(C(F)(F)F)c5)OC4C3OC3OC(C)C(O)C(OC)C3O)c2c2oc(=O)c3c(C)ccc4oc(=O)c1c2c43 (stereo not drawn) [Compound No. 161, 6-O-(Trans-2-Methyl-2-Butenoyl)-3',4'-O-(m-Trifluoromethylbenzylidene)Chartreusin] | ≥ 80 | 169 | response vs control in vivo at 80 mg/kg (P-388 leukemia cells; [2]): 234%
6 | COC1C(O)C(C)OC(OC2C(Oc3cccc4c(OC(=O)CCCCCNC(=O)C(F)(F)F)c5c(=O)oc6ccc(C)c7c(=O)oc(c34)c5c67)OC(C)C3OC(CC(C)=O)OC32)C1O (stereo not drawn) [compound 130] | ≥ 180 |  | response vs control in vivo at 160 mg/kg (P-388 leukemia cells; Mus musculus, P388, iv, dose i: 160 mg/kg × 3, i.v. on days 1, 5 and 9, BDF1 mice, P-388 i.p., read-out: T/C (%) of MST): 141%
7 | COC1C(O)C(C)OC(OC2C(Oc3cccc4c(OC(=O)CCc5ccccc5)c5c(=O)oc6ccc(C)c7c(=O)oc(c34)c5c67)OC(C)C3OC(c4ccccc4)OC32)C1O (stereo not drawn) [Compound No. 154] | ≥ 40 | 214 | response vs control in vivo at 20 mg/kg (P-388 leukemia cells; [4]): 205%
8 | C#CCCC(=O)Oc1c2cccc(O[C@@H]3O[C@H](C)[C@@H]4OC(C)(C)O[C@@H]4[C@H]3O[C@H]3O[C@H](C)[C@H](O)[C@H](OC)[C@H]3O)c2c2oc(=O)c3c(C)ccc4oc(=O)c1c2c43 [compound 201] | ≥ 60 | 162 | 
9 | COC1C(O)C(C)OC(OC2C(Oc3cccc4c(OC(=O)CCNC=O)c5c(=O)oc6ccc(C)c7c(=O)oc(c34)c5c67)OC(C)C3OC(C)(C)OC32)C1O (stereo not drawn) [Compound No. 48, 6-O-(N-formyl-β-alanyl)-3',4'-O-isopropylidene-chartreusin] | ≥ 120 |  | response vs control in vivo at 80 mg/kg (P-388 leukemia cells; [2]): 172%
10 | COC1C(O)C(C)OC(OC2C(Oc3cccc4c(OC(=O)C(C)C)c5c(=O)oc6ccc(C)c7c(=O)oc(c34)c5c67)OC(C)C3OC(C)(C)OC32)C1O (stereo not drawn) [compound 222] | ≥ 80 | 144 | response vs control in vivo at 80 mg/kg (P-388 leukemia cells; [2]): 162%
11 | COC1C(O)C(C)OC(OC2C(Oc3cccc4c(OC(=O)C(C)CNC(=O)CN(C)C)c5c(=O)oc6ccc(C)c7c(=O)oc(c34)c5c67)OC(C)C3OC(c4ccccc4)OC32)C1O (stereo not drawn) [Compound No. 4] | ≥ 40 | 216 | response vs control in vivo at 20 mg/kg (P-388 leukemia cells; [4]): 184%
12 | CO[C@H]1[C@@H](O)[C@@H](C)O[C@H](O[C@H]2[C@H](Oc3cccc4c(OC(=O)CCCCl)c5c(=O)oc6ccc(C)c7c(=O)oc(c34)c5c67)O[C@H](C)[C@@H]3OC(C)(C)O[C@@H]32)[C@@H]1O [compound 204] | ≥ 60 | 174 | 
13 | CO[C@H]1[C@@H](O)[C@@H](C)O[C@H](O[C@H]2[C@H](Oc3cccc4c(OC(=O)c5ccc(C#N)cc5)c5c(=O)oc6ccc(C)c7c(=O)oc(c34)c5c67)O[C@H](C)[C@@H]3OC(c4ccccc4Cl)O[C@@H]32)[C@@H]1O (stereo partly drawn) [Compound No. 187] | ≥ 80 | 130 | response vs control in vivo at 80 mg/kg (P-388 leukemia cells; [2]): 216%
14 | COC1C(O)C(C)OC(OC2C(Oc3cccc4c(OC(=O)CCNC(=O)C(Cl)(Cl)Cl)c5c(=O)oc6ccc(C)c7c(=O)oc(c34)c5c67)OC(C)C3OC(c4ccccc4)OC32)C1O (stereo not drawn) [Compound No. 22] | ≥ 40 |  | response vs control in vivo at 20 mg/kg (P-388 leukemia cells; [4]): 181%
15 | COC1C(O)C(C)OC(OC2C(Oc3cccc4c(OC(=O)C(Cc5c[nH]c6ccccc56)NC(=O)OCc5ccccc5)c5c(=O)oc6ccc(C)c7c(=O)oc(c34)c5c67)OC(C)C3OC(c4ccccc4)OC32)C1O (stereo not drawn) [compound 121] | ≥ 40 | 146 | 
16 | COC1C(O)C(C)OC(OC2C(Oc3cccc4c(OC(=O)CCNC(=O)C(Cl)(Cl)Cl)c5c(=O)oc6ccc(C)c7c(=O)oc(c34)c5c67)OC(C)C3OC(c4cccc(Br)c4)OC32)C1O (stereo not drawn) [Compound No. 56] | ≥ 80 | 165 | response vs control in vivo at 80 mg/kg (P-388 leukemia cells; [2]): 219%
17 | COC1C(O)C(C)OC(OC2C(Oc3cccc4c(OC(=O)C(NC(=O)CNC(=O)CNC(=O)OCc5ccccc5)C(C)C)c5c(=O)oc6ccc(C)c7c(=O)oc(c34)c5c67)OC(C)C3OC(c4ccccc4)OC32)C1O (stereo not drawn) [compound 115] | ≥ 40 |  | response vs control in vivo at 20 mg/kg (P-388 leukemia cells; [4]): 135%
18 | COC1C(O)C(C)OC(OC2C(Oc3cccc4c(OC(=O)CCCCCNC(=O)OCc5ccccc5)c5c(=O)oc6ccc(C)c7c(=O)oc(c34)c5c67)OC(C)C3OC(c4ccccc4)OC32)C1O (stereo not drawn) [compound 119] | ≥ 40 |  | T/C (%) of MST (P-388 leukemia cells; dose c: 40 mg/kg × 3, i.v. on days 1, 5 and 9, BDF1 mice, P-388 i.p.): 153%
19 | COC1C(O)C(C)OC(OC2C(Oc3cccc4c(OC(=O)C5CC=CCC5)c5c(=O)oc6ccc(C)c7c(=O)oc(c34)c5c67)OC(C)C3OC(C)(C)OC32)C1O (stereo not drawn) [Compound No. 223, 6-O-(3-Cyclohexene-1-Carbonyl)-3',4'-O-Isopropylidene-Chartreusin] | ≥ 60 |  | response vs control in vivo at 60 mg/kg (P-388 leukemia cells; [2]): 172%
20 | COC1C(O)C(C)OC(OC2C(Oc3cccc4c(OC(=O)C5CCCCC5NC(=O)C(F)(F)F)c5c(=O)oc6ccc(C)c7c(=O)oc(c34)c5c67)OC(C)C3OC(c4cccc(F)c4)OC32)C1O (single isomer, unassigned) [Compound No. 27, 6-O-(N-Trifluoroacetyl-2-Amino-Cyclohexanecarbonyl)-3',4'-O-(m-Fluorobenzylidene)-Chartreusin] | ≥ 30 |  | response vs control in vivo at 20 mg/kg (P-388 leukemia cells; [4]): 179%
21 | C/C=C(\C)C(=O)Oc1c2cccc(OC3OC(C)C4OC(c5ccccc5)OC4C3OC3OC(C)C(O)C(OC)C3O)c2c2oc(=O)c3c(C)ccc4oc(=O)c1c2c43 (stereo not drawn) [compound 231] |  |  | LD50 [1]: ≥ 40 mg/kg; response vs control in vivo at 20 mg/kg (P-388 leukemia cells; Mus musculus, P388, iv, read-out: T/C (%) of MST): 150%
22 | COC1C(O)C(C)OC(OC2C(Oc3cccc4c(OC(=O)CC[S+](C)[O-])c5c(=O)oc6ccc(C)c7c(=O)oc(c34)c5c67)OC(C)C3OC(c4ccccc4)OC32)C1O (stereo not drawn) [Compound No. 150] | ≥ 40 | 205 | response vs control in vivo at 20 mg/kg (P-388 leukemia cells; [4]): 200%
23 | CCOCCC(=O)Oc1c2cccc(O[C@@H]3O[C@H](C)[C@@H]4OC(c5cccc(Cl)c5)O[C@@H]4[C@H]3O[C@H]3O[C@H](C)[C@H](O)[C@H](OC)[C@H]3O)c2c2oc(=O)c3c(C)ccc4oc(=O)c1c2c43 (stereo partly drawn) [Compound No. 188] | ≥ 60 | 193 | 
